# Counter-ions that a name gives are not always drawn.
# Target: T1, murine MCHR (Mus musculus, UniProt Q8JZL2)
# T1 construct: expressed in transfected cells; host or cells: HEK293
# Experiment: Assay for release of intracellular calcium (FLIPR, Fluo-4), inhibition of MCH-induced Ca++ flux
# Format: cell-based
# Conditions: test compound at a dose of 10 μM, HEK293 cells expressing the murine MCHR, read-out: inhibition of MCH (MCH induced Ca++ flux / fluorescence)
# Method: Assay for Release of Intracellular Calcium
# Activation of the melanin concentrating hormone receptor (MCHR) by MCH induces the release of Ca^++ from intracellular stores. This intracellular calcium release is measured using a fluorometric imaging plate reader (FLIPR™, Molecular Devices Corp.) in conjunction with the Ca^++-sensitive dye Fluo-4. Release of Ca^++ from intracellular stores causes an increase in fluorescence of the dye that is proportional to Ca^++ concentration. Briefly, the assays are performed as follows. HEK293 cells expressing the murine MCHR are plated overnight at 50,000 cells/well in 96-well plates. The following day, culture medium is removed and replaced with 100 μl/well of D-PBS (+glucose and sodium pyruvate) containing 2.5 μM Fluo-4AM (Molecular Probes), 0.01% Pluronic F-127 and 2.5 mM probenecid. Cells are loaded with the Fluo-4 dye for at least one hour at room temp. After loading, the cells are washed gently to remove extracellular dye and 100 μl of D-PBS (+glucose and sodium pyruvate) is added to each well. Test compounds are prepared at 40 μM in 4% DMSO. The cell plate is placed in the FLIPR™ and 50 μl/well of test compound is delivered. The calcium signal is followed for 3 minutes to assay for potential agonist activity by the test compounds. Then 50 μl/well of 12 nM mouse MCH (in D-PBS containing 0.1% BSA) is added and the ligand-induced calcium signal is followed for an additional 3 minutes. Antagonist activity as determined by the test compounds ability to inhibit MCH induced Ca^++ flux is calculated as % inhibition as described by the following formula: % inhibition=[1−((fTC−fB)÷(fMCH−fB))]×100, where fTC=MCH-induced fluorescence in the presence of test compound; fMCH=MCH-induced fluorescence in the absence of test compound; and fB=Baseline fluorescence.
# MCH (3 nM) usually elicits a response of 30,000-40,000 relative fluorescence units (RFU) with a baseline of about 1000 RFU. Fluo-4 fluorescence is measured at 488 nm, with an exposure of 0.40 sec. and F-stop=2.0 and the laser set at 0.40-0.60 W constant light output.
# T1 sequence (Q8JZL2 whole entry): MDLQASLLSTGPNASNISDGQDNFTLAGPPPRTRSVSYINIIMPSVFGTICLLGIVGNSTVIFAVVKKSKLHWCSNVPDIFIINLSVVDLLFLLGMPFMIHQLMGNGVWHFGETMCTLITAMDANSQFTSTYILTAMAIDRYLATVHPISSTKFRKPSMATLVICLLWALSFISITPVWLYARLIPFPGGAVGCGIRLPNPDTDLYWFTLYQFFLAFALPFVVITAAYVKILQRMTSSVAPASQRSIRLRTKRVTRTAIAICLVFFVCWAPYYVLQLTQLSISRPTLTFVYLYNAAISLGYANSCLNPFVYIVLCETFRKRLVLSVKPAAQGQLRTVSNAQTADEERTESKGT
row,inhibition at 10 µM,SMILES
1,≥ 50%,"Cn1c(=O)cc(NC2CCN(Cc3ccc4occc4c3)CC2)c2cc(C(F)(F)F)ccc21 [Compound V-33, 4-(1-Benzofuran-5-ylmethyl-piperidin-4-ylamino)-1-methyl-6-trifluoromethyl-1H-quinolin-2-one]"
2,≥ 50%,"O=c1cc(NC2CCN(Cc3ccncc3)CC2)c2cc(Cl)ccc2n1Cc1ccncc1 [Compound V-35, 6-Chloro-1-pyridin-4-ylmethyl-4-(1-pyridin-4-ylmethyl-piperidin-4-ylamino)-1H-quinolin-2-one]"
3,≥ 50%,"O=c1cc(NC2CCN(Cc3ccc4c(c3)CCO4)CC2)c2cc(Cl)ccc2o1 [II-78, 6-Chloro-4-[1-(2,3-dihydro-benzofuran-5-ylmethyl)-piperidin-4-ylamino]-chromen-2-one]"
4,≥ 50%,"O=c1cc(NC2CCN(Cc3ccc4ocnc4c3)CC2)c2cc(Cl)ccc2o1 [II-95, 4-{1-Benzooxazol-5-ylmethyl-piperidin-4-ylamino)-6-chloro-chromen-2-one]"
5,≥ 50%,"COc1ccc2oc(=O)cc(NC3CCN(Cc4ccc(OC)c(C)c4)CC3)c2c1 [II-37, 6-Methoxy-4-[1-(4-methoxy-3-methyl-benzyl)-piperidin-4-ylamino]-chromen-2-one trifluoroacetate]"
6,≥ 50%,"O=c1cc(NC2CCN(Cc3ccc4c(c3)OCCCO4)CC2)c2cc(Cl)ccc2o1 [II-51, 6-Chloro-4-[1-(3,4-dihydro-2H-benzo[b][1,4]dioxepin-7-ylmethyl)-piperidin-4-ylamino]-chromen-2-one]"
7,≥ 50%,"Cc1ccc2oc(=O)c(F)c(NC3CCN(Cc4ccc5c(c4)OCO5)CC3)c2c1 [II-89, 4-(1-Benzo{1,3}dioxol-5-ylmethyl-piperidin-4-ylamino)-3-fluoro-6-methylchromene-2-one]"
8,≥ 50%,"COc1ccc(CN2CCC(Nc3c(C(=O)N(C)C)c(=O)n(C)c4ccc(Cl)cc34)CC2)cc1F [Compound V-54, 6-Chloro-4-[1-(3-fluoro-4-methoxy-benzyl)-piperidin-4-ylamino]-1-methyl-2-oxo-1,2-dihydro-quinoline-3-carboxylic acid dimethylamide]"
9,≥ 50%,"C=Cc1ccc2oc(=O)cc(NC3CCN(Cc4ccc5ocnc5c4)CC3)c2c1 [II-100, 4-(1-Benzooxazol-5-ylmethyl-piperidin-4-ylamino)-6-vinyl-chromen-2-one]"
10,≥ 50%,"CC(c1ccc2c(c1)OCO2)N1CCC(Nc2cc(=O)oc3ccc(Cl)cc23)CC1 (stereo not shown) [II-60, 4-[1-(1-Benzo[1,3]dioxol-5-yl-ethyl)-piperidin-4-ylamino]-6-chloro-chromen-2-one]"
11,≥ 50%,"Cn1c(=O)c(C2=NC(C)(C)CO2)c(NC2CCN(Cc3ccc4c(c3)OCO4)CC2)c2cc(Cl)ccc21 [Compound V-49, 4-(1-Benzo[1,3]dioxol-5-ylmethyl-piperidin-4-ylamino)-6-chloro-3-(4,4-dimethyl-4,5-dihydro-oxazol-2-yl)-1-methyl-1H-quinolin-2-one]"
12,≥ 50%,"O=c1cc(NC2CCN(C/C=C/c3ccccc3)CC2)c2cc(Br)ccc2o1 [III-5, 6-Bromo-4-[1-(3-phenyl-allyl)-piperidine-4-ylamino]-chromen-2-one]"
13,≥ 50%,"Cc1cc2cc(CN3CCC(Nc4cc(=O)oc5ccc(Cl)cc45)CC3)ccc2o1 [II-61, 6-Chloro-4-[1-(2-methyl-benzofuran-5-ylmethyl)-piperidin-4-ylamino]-chromen-2-one]"
14,≥ 50%,"O=c1cc(NC2CCN(Cc3cc4ccccc4o3)CC2)c2cc(Cl)ccc2o1 [II-18, 4-(1-Benzofuran-2-ylmethyl-piperidin-4-ylamino)-6-chloro-chromen-2-one]"
15,≥ 50%,"COC(=O)c1c(NC2CCN(Cc3ccc4c(c3)OCO4)CC2)c2cc(Cl)ccc2n(C)c1=O [Compound V-39, 4-(1-Benzo[1,3]dioxol-5-ylmethyl-piperidin-4-ylamino)-6-chloro-1-methyl-2-oxo-1,2-dihydro-quinoline-3-carboxylic acid methyl ester]"
16,≥ 50%,"COc1ccc(CN2CCC(Nc3cc(=O)oc4ccc(OC)cc34)CC2)cc1 [II-39, 6-Methoxy-4-[1-(4-methoxy-benzyl)-piperidin-4-ylamino]-chromen-2-one trifluoroacetate]"
17,≥ 50%,"COc1ccc2oc(=O)cc(N[C@@H]3CCN(Cc4ccc5c(c4)OCO5)C[C@H]3C)c2c1 (stereo in doubt) [II-72, 4-(1-Benzo[1,3]dioxol-5-ylmethyl-3-methyl-piperidin-4-ylamino)-6-methoxy-chromen-2-one]"
18,≥ 50%,"C[C@H](c1ccc2c(c1)OCO2)N1CCC(Nc2cc(=O)oc3ccc(Cl)cc23)CC1 [II-28, 4-[1-(1-Benzo[1,3]dioxol-5-yl-ethyl)-piperidin-4-ylamino]-6-chloro-chromen-2-one]"
19,≥ 50%,"COc1ccc2oc(=O)c(F)c(NC3CCN(Cc4ccc5c(c4)OCO5)CC3)c2c1 [II-26, 4-(1-Benzo{1,3}dioxol-5-ylmethyl-piperidin-4-ylamino)-3-fluoro-6-methoxychromene-2-one]"
20,≥ 50%,"CCc1ccc2oc(=O)cc(NC3CCN(Cc4ccc(C)c(C)c4)CC3)c2c1 [II-103, 4-{1-(3,4-Dimethyl-benzyl)-piperidin-4-ylamino}-6-ethyl-chromen-2-one]"
21,≥ 50%,"O=c1cc(NC2CCN(C/C=C/c3cccc(Cl)c3)CC2)c2ccccc2o1 [III-9, 4-{1-[3-(3-Chloro-phenyl)-allyl]-piperidin-4-ylamino}-chromen-2-one]"
22,≥ 50%,"C=Cc1ccc2oc(=O)cc(NC3CCN(Cc4ccc5c(c4)OCCO5)CC3)c2c1 [II-57, 4-{1-(2,3-Dihydrobenzo{1,4}dioxin-6-ylmethyl)-piperidin-4-ylamino}-6-vinyl-chromen-2-one]"
23,≥ 50%,"Cc1ccc(CN2CCC(Nc3cc(=O)oc4ccc(Cl)cc34)CC2)cc1C [II-71, 6-Chloro-4-[1-(3,4-dimethyl-benzyl)-piperidin-4-ylamino]-chromen-2-one]"
24,≥ 50%,"COc1ccc2oc(=O)cc(NC3CCN(Cc4ccc5c(c4)OC(F)(F)O5)CC3)c2c1 [II-68, 4-[1-(2,2-Difluoro-benzo[1,3]dioxol-5-ylmethyl)-piperidin-4-ylamino]-6-methoxy-chromen-2-one trifluoroacetate]"
25,≥ 50%,"CC(c1ccc(O)c(F)c1)N1CCC(Nc2cc(=O)oc3ccc(Cl)cc23)CC1 (stereo not shown) [II-113, 6-Chloro-4-{1-[1-(3-fluoro-4-hydroxy-phenyl)-ethyl]-piperidin-4-ylamino}-chromen-2-one]"
26,≥ 50%,"O=c1cc(NC2CCN(Cc3ccc4c(c3)OCO4)CC2)c2cc(C(F)(F)F)ccc2n1CC(F)(F)F [Compound V-58, 4-(1-Benzo[1,3]dioxol-5-ylmethyl-piperidin-4-ylamino)-1-(2,2,2-trifluoro-ethyl)-6-trifluoromethyl-1H-quinoline-2-one]"
27,≥ 50%,"O=C(NCCN1CCCCC1)c1ccc(CN2CCC(Nc3cc(=O)oc4ccc(Cl)cc34)CC2)cc1 [II-67, 4-[4-(6-Chloro-2-oxo-2H-chromen-4-ylamino)-piperidin-1-ylmethyl]-N-(2-piperidin-1-yl-ethyl)-benzamide; Double TFA Salt]"

row,SMILES,inhibition at 10 µM
1,"CCCCOc1ccc(CN2CCC(Nc3cc(=O)oc4ccc(OC)cc34)CC2)cc1 [II-50, 4-[1-(4-Butoxy-benzyl)-piperidin-4-ylamino]-6methoxy-chromen-2-one trifluoroacetate]",≥ 50%
